Calls of active or inactive are those of the source. The calls are words filed in the database; no cut-off is given here.
Assays:
[1] = Cytotoxicity against LPS stimulated mouse BV-2 cells assessed as cell survival at 10 uM by MTT assay; assay type: toxicity, cell-based; details: LPS-stimulated BV-2 cells, read-out: Activity
[2] = system: BV-2; assay: Anti-neuroinflammatory activity against LPS-stimulated mouse BV-2 cells assessed as inhibition of NO production at 10 uM; assay type: functional; design: scale not given: the % may be the effect or the level left
[3] = system: BV-2; assay: Anti-neuroinflammatory activity against LPS-stimulated mouse BV-2 cells assessed as inhibition of NO production at 1 uM; assay type: functional; design: scale not given: the % may be the effect or the level left
[4] = system: PC12; assay: Neuroprotective activity against 6-OHDA induced oxidative damage in […] cells assessed as increase in cell viability preincubated for 4 hrs followed by 6-OHDA stimulation and measured after 24 hrs by MTT assay (reference value: 48.6%); assay type: functional, cell-based; details: Rattus norvegicus, dose 1-10 µM, time 28.0 hrs
[5] = Cytotoxicity against […] cells assessed as cell survival at 20 uM by MTT assay; assay type: toxicity, cell-based, Rattus norvegicus; details: read-out: Survival
[6] = system: BV-2; assay: Anti-neuroinflammatory activity against LPS-stimulated mouse BV-2 cells assessed as inhibition of NO production; assay type: functional, cell-based
[7] = system: HT-22; assay: Neuroprotective activity against RSL3 induced ferroptosis in mouse HT-22 cells assessed as increase in cell viability at 10 uM preincubated for 4 hrs followed by RSL3 stimulation and measured after 24 hrs by MTT assay (reference value: 52.1%); assay type: functional; details: time 28 hrs
[8] = Cytotoxicity against mouse HT-22 cells assessed as cell survival at 20 uM by MTT assay; assay type: toxicity, cell-based; details: read-out: Survival
[9] = target: Acetylcholinesterase (Electrophorus electricus) (UniProt O42275); assay: Inhibition of electric eel AChE at 20 uM using […] as substrate pretreated for 20 mins prior to DTNB addition for 30 mins followed by substrate addition and measured after 45 mins by Ellman's method relative to control; details: time 95.0 min
Acetylcholinesterase (Electrophorus electricus), sequence (O42275 24-633 limits assumed): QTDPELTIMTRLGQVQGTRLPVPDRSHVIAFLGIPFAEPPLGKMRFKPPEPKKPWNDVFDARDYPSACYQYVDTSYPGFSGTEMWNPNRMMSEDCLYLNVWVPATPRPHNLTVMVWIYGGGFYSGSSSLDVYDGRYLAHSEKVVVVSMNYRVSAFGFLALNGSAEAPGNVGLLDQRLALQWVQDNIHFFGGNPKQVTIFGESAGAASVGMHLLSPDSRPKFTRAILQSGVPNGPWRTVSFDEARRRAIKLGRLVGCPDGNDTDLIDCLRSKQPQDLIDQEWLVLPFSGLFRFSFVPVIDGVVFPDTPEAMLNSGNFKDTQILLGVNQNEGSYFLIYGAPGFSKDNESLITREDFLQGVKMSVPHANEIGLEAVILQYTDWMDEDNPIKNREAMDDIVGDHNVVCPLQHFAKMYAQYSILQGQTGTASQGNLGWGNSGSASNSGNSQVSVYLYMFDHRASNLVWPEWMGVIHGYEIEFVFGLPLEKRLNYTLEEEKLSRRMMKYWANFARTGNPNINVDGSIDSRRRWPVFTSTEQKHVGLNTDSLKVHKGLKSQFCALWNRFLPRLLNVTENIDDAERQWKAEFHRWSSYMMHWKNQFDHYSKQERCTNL

[10] = target: Amyloid-beta precursor protein (Homo sapiens) (UniProt P05067); assay: Inhibition of self-induced amyloid beta (1 to 42 residues) (unknown origin) aggregation at 20 uM by thioflavin T based fluorescence analysis
Amyloid-beta precursor protein (Homo sapiens), sequence (P05067 whole entry, the tested form may be a part): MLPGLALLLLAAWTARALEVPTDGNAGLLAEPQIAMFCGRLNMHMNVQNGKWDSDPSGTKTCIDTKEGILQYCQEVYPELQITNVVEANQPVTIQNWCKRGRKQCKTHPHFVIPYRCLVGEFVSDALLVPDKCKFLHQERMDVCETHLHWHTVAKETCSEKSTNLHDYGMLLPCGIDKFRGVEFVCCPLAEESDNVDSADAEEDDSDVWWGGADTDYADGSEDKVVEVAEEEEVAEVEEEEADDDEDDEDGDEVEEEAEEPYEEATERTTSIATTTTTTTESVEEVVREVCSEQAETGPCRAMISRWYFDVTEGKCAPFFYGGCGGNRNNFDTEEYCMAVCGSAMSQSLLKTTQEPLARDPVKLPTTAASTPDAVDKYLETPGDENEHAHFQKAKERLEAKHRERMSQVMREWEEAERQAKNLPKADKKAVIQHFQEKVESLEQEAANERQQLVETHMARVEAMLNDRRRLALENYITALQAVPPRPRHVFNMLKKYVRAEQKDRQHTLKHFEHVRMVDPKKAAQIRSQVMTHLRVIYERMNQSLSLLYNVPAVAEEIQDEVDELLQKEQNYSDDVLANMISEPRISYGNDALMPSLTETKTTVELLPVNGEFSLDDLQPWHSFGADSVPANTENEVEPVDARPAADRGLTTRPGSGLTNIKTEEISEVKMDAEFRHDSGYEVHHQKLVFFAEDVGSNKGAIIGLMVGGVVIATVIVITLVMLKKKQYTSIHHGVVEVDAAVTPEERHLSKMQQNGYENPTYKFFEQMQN

[11] = system: BV-2; assay: Antiinflammatory activity against LPS induced mouse BV-2 cells assessed as increase in IL-10 expression at 0.5 to 2.5 uM incubated for 24 hrs by ELISA; assay type: functional, cell-based; details: dose 0.5-2.5 µM
[12] = system: BV-2; assay: Antiinflammatory activity against LPS induced mouse BV-2 cells assessed as decrease in PGE2 expression incubated for 24 hrs by ELISA; assay type: functional, cell-based; details: dose 0.1-2.5 µM
[13] = target: Amyloid-beta precursor protein (Homo sapiens) (UniProt P05067); assay: Inhibition of self-induced amyloid beta (1 to 42 residues) (unknown origin) aggregation at 5 to 20 uM by thioflavin T based fluorescence analysis; details: dose 5-20 µM
[14] = system: BV-2; assay: Antiinflammatory activity against LPS induced mouse BV-2 cells assessed as decrease in COX2 expression incubated for 24 hrs by Western blotting analysis; assay type: functional, cell-based; details: dose 0.1-2.5 µM
[15] = system: BV-2; assay: Antiinflammatory activity against LPS induced mouse BV-2 cells assessed as increase in arginase-1 expression at 0.5 to 2.5 uM incubated for 24 hrs by ELISA; assay type: functional, cell-based; details: dose 0.5-2.5 µM
[16] = system: BV-2; assay: Antiinflammatory activity against LPS induced mouse BV-2 cells assessed as decrease in iNOS expression incubated for 24 hrs by Western blotting analysis; assay type: functional, cell-based; details: dose 0.1-2.5 µM
[17] = system: BV-2; assay: Antiinflammatory activity against LPS induced mouse BV-2 cells assessed as decrease in TNFalpha expression incubated for 24 hrs by ELISA; assay type: functional, cell-based; details: dose 0.1-2.5 µM
[18] = Drug distribution in ICR mouse kidney measured at 5.5 mins by micro-PET/CT imaging analysis; assay type: ADME, tissue-based; details: in vivo
[19] = Drug distribution in ICR mouse brain measured at 60 mins by micro-PET/CT imaging analysis; assay type: ADME, tissue-based; details: in vivo, 1 h
[20] = Drug distribution in ICR mouse kidney measured at 1.25 mins by micro-PET/CT imaging analysis; assay type: ADME, tissue-based; details: in vivo, 75 s
[21] = Drug distribution in ICR mouse kidney measured at 60 mins by micro-PET/CT imaging analysis; assay type: ADME, tissue-based; details: in vivo, 1 h
[22] = Drug distribution in ICR mouse lung measured at 1.25 mins by micro-PET/CT imaging analysis; assay type: ADME, tissue-based; details: in vivo, 75 s
[23] = Drug distribution in ICR mouse brain measured after 4 to 5 mins by micro-PET/CT imaging analysis; assay type: ADME, tissue-based; details: in vivo, time 4-5 min
[24] = Drug distribution in ICR mouse heart measured at 60 mins by micro-PET/CT imaging analysis; assay type: ADME, tissue-based; details: in vivo, 1 h
[25] = Drug distribution in ICR mouse bone measured at 1.25 to 57.5 mins by micro-PET/CT imaging analysis; assay type: ADME, tissue-based, Bone element; details: in vivo, time 1.25-57.5 min
[26] = Drug distribution in ICR mouse brain measured at 1 mins by micro-PET/CT imaging analysis; assay type: ADME, tissue-based; details: in vivo
[27] = Drug distribution in ICR mouse lung measured at 60 mins by micro-PET/CT imaging analysis; assay type: ADME, tissue-based; details: in vivo, 1 h
[28] = Drug distribution in ICR mouse heart measured at 1.25 mins by micro-PET/CT imaging analysis; assay type: ADME, tissue-based; details: in vivo, 75 s
[29] = Drug distribution in ICR mouse brain measured at 1.25 mins by micro-PET/CT imaging analysis; assay type: ADME, tissue-based; details: in vivo, 75 s
[30] = Drug distribution in ICR mouse muscle measured at 1.25 to 57.5 mins by micro-PET/CT imaging analysis; assay type: ADME, tissue-based, Muscle tissue; details: in vivo, time 1.25-57.5 min
[31] = Drug distribution in ICR mouse liver measured at 1.25 mins by micro-PET/CT imaging analysis; assay type: ADME, tissue-based; details: in vivo, 75 s
[32] = Drug distribution in ICR mouse liver measured at 60 mins by micro-PET/CT imaging analysis; assay type: ADME, tissue-based; details: in vivo, 1 h

Row | Structure (SMILES) | viability at 10 µM [1] | Activity [2] | Activity [3] | also measured
1 | COc1cc(/C=C/C(=O)O/N=C(\Cn2ccnc2)c2ccc3c(c2)OCO3)ccc1O | 89.4% | 67.6% | 39.4% | –
2 | COC(=O)CCCCCO/N=C(\Cn1ccnc1)c1ccc2c(c1)OCO2 | 116% | 76% | 35.4% | –
3 | C#CCO/N=C(\Cn1ccnc1)c1ccc2c(c1)OCO2 | 95.9% | 84.5% | 45.2% | Activity [4]: Dose-Dependent Effect; viability at 20 µM [5]: > 95%; EC50 [6]: 1180 nM
4 | CN(C)c1ccc(/C(Cn2ccnc2)=N/OC(=O)/C=C/c2ccccc2)cc1 | 92.8% | 41.8% | 39.2% | –
5 | CN(C)c1ccc(/C(Cn2ccnc2)=N/OC(=O)CCc2ccccc2)cc1 | 92.5% | 31.4% | 31.5% | –
6 | COc1ccc(/C=C/C(=O)O/N=C(\Cn2ccnc2)c2ccc3c(c2)OCO3)cc1 | 95.9% | 91.3% | 45.6% | –
7 | C#CCO/N=C(\Cn1ccnc1)c1ccc(C(=O)OCC)cc1 | 115% | 73.5% | 34.8% | –
8 | CN(C)c1ccc(/C(Cn2ccnc2)=N/OC/C=C/c2ccccc2)cc1 | 98.1% | 40.7% | 22.5% | –
9 | CN(C)c1ccc(/C(Cn2ccnc2)=N/OCc2ccccc2)cc1 | 97.3% | 48.7% | 27.6% | –
10 | O=C(O/N=C(\Cn1ccnc1)c1ccc2c(c1)OCO2)C12CC3CC(CC(C3)C1)C2 | 113% | 88.4% | 44.1% | –
11 | O=C(/C=C/c1ccc2c(c1)OCO2)O/N=C(\Cn1ccnc1)c1ccc2c(c1)OCO2 | 85.2% | 73% | 35.8% | –
12 | C=C(C)CO/N=C(\Cn1ccnc1)c1ccc(N(C)C)cc1 | 98.6% | 46.3% | 28.1% | –
13 | O=c1c(O)c(-c2ccc(O)c(O)c2)oc2cc(O)cc(O)c12 [QUERCETIN] | 91.3% | 52.8% | – | –
14 | C#CCO/N=C(\Cn1ccnc1)c1ccc(C(=O)NO)cc1 | 109% | 70.5% | 36.2% | Activity [4]: Dose-Dependent Effect; viability at 20 µM [5]: > 95%; EC50 [6]: 5610 nM
15 | CN(C)c1ccc(/C(Cn2ccnc2)=N/OC(=O)/C=C/c2ccccc2Cl)cc1 | 105% | 65.8% | 38.8% | –
16 | c1cn(CCc2ccc3c(c2)OCO3)cn1 | 93.3% | 47.9% | 19.6% | –

Row | Structure (SMILES) | viability at 10 µM [1] | Activity [2] | Activity [3] | also measured
17 | C#CCO/N=C(/Cn1ccnc1)c1ccc2c(c1)OCO2 | 98.4% | 25.5% | 13.4% | Activity [4]: Dose-Dependent Effect; viability at 20 µM [5]: > 95%; EC50 [6]: > 20000 nM
18 | C#CCO/N=C(\Cn1ccnc1)c1ccc(C(=O)OC)cc1 | 105% | 72.7% | 36% | –
19 | Cc1c(CO)ncn1CC(=O)c1ccc2c(c1)OCO2 | 99.8% | 37.7% | 27.4% | –
20 | C#CCO/N=C(\Cn1cnc(CO)c1C)c1ccc2c(c1)OCO2 | 75.8% | 48.7% | 27.6% | –
21 | O=C(CCCC[C@@H]1CCSS1)O/N=C(\Cn1ccnc1)c1ccc2c(c1)OCO2 | 97.5% | 99.7% | 51.8% | Activity [7]: 67.7%; Activity [4]: Dose-Dependent Effect; viability at 20 µM [8]: > 90%; inhibition [9]: 54.9%; viability at 20 µM [5]: > 95%; EC50 [6]: 760 nM; inhibition [10]: inactive
22 | FCCO/N=C(\Cn1ccnc1)c1ccc2c(c1)OCO2 | 116% | 99.4% | 69.5% | Activity [11]: Active; Activity [12]: Dose-Dependent Effect; inhibition [13]: Active; Activity [14]: Dose-Dependent Effect; Activity [15]: Active; Activity [7]: 66.6%; Activity [4]: Dose-Dependent Effect; viability at 20 µM [8]: > 90%; inhibition [9]: 60.1%; Activity [16]: Dose-Dependent Effect; Activity [17]: Dose-Dependent Effect; viability at 20 µM [5]: > 95%; EC50 [6]: 490 nM
23 | FCCCO/N=C(\Cn1ccnc1)c1ccc2c(c1)OCO2 | 87.7% | 65% | 31.1% | –
24 | C#CCO/N=C(\Cn1ccnc1)c1ccc(N(C)C)cc1 | 103% | 49.6% | 30.9% | inhibition [13]: Active; Activity [7]: 62.5%; Activity [4]: Dose-Dependent Effect; viability at 20 µM [8]: > 90%; inhibition [9]: 70.3%; viability at 20 µM [5]: > 95%; EC50 [6]: 6780 nM
25 | FCCOCCOCCO/N=C(\Cn1ccnc1)c1ccc2c(c1)OCO2 | 99.9% | 53.9% | 24.4% | –
26 | O=C(Cn1ccnc1)c1ccc2c(c1)OCO2 | 97.9% | 61.6% | 21.5% | –
27 | CN(C)c1ccc(/C(Cn2ccnc2)=N/OC(=O)/C=C/c2ccc(Cl)cc2)cc1 | 85.6% | 54.1% | 41.2% | –
28 | COC(Cn1ccnc1)c1ccc2c(c1)OCO2 (racemic) | 76.1% | 28% | 17.9% | –
29 | OC(Cn1ccnc1)c1ccc2c(c1)OCO2 (racemic) | 97.1% | 68.9% | 21.4% | –
30 | [18F]CCO/N=C(\Cn1ccnc1)c1ccc2c(c1)OCO2 | – | – | – | Drug uptake [18]: Active; Drug uptake [19]: Not Active; Drug uptake [20]: 3.8 %ID/cc; Drug uptake [21]: Not Active; Drug uptake [22]: 5.2 %ID/cc; Drug uptake [23]: Not Active; Drug uptake [24]: Not Active; Drug uptake [25]: Active; Drug uptake [26]: Active; Drug uptake [27]: Not Active; Drug uptake [28]: 5 %ID/cc; Drug uptake [29]: 7.4 %ID/cc; Drug uptake [30]: Active; Drug uptake [31]: 18.1 %ID/cc; Drug uptake [32]: Not Active
31 | CN(C)c1ccc(/C(Cn2ccnc2)=N/OC(=O)/C=C/c2ccc3c(c2)OCO3)cc1 | 96.7% | 34.2% | 22.2% | Activity [4]: Dose-Dependent Effect; viability at 20 µM [5]: > 95%; EC50 [6]: 15700 nM
32 | O=C(CCCCCO/N=C(\Cn1ccnc1)c1ccc2c(c1)OCO2)NO | 111% | 82.9% | 42.7% | inhibition [13]: Active; Activity [7]: 66.7%; Activity [4]: Dose-Dependent Effect; viability at 20 µM [8]: > 90%; viability at 20 µM [5]: > 95%; EC50 [6]: 1090 nM
